Measurements taken from patent US10710978B2, “STK4 inhibitors for treatment of hematologic malignancies” (Dana-Farber Cancer Institute, Inc., priority 2015, dated 2020).
Like-named read-outs stand apart in the source and are kept apart here.

What was measured:
Assay in all cases: KiNativ assay
Type in all cases: binding
Conditions in all cases: H929 live cell
IKKe, TBK1 = test system: IKKe, TBK1
Protocol: (§1) Biochemical IC50s of the compounds of the present disclosure against various kinases were measured in a KiNativ assay. Compounds were screened in duplicate at 10 μM in H929 live cell. IC50 was measured via Mass spectroscopy (MS).

JAK3 domain2 = JAK3 domain2 (Homo sapiens (Human), UniProt P52333)
Protocol: as §1

MAPKAPK2, MAPKAPK3 = test system: MAPKAPK2, MAPKAPK3
Protocol: as §1

p70S6K = p70S6K (Homo sapiens (Human), UniProt P23443)
Protocol: as §1

MAST3 = MAST3 (Homo sapiens (Human), UniProt O60307)
Protocol: as §1

SLK = SLK (Homo sapiens (Human), UniProt Q9H2G2)
Protocol: as §1

MLK3 = MLK3 (Homo sapiens (Human), UniProt Q16584)
Protocol: as §1

[1] = test system: RSK1 domain1, RSK2 domain1, RSK3 domain1
Protocol: as §1

Erk1 = Erk1 (Homo sapiens (Human), UniProt P27361)
Protocol: as §1

MARK2 = MARK2 (Homo sapiens (Human), UniProt Q7KZI7)
Protocol: as §1

RSK2 domain2 = RSK2 domain2 (Homo sapiens (Human), UniProt P51812)
Protocol: as §1

MASTL = MASTL (Homo sapiens (Human), UniProt Q96GX5)
Protocol: as §1

PIK3CB = PIK3CB (Homo sapiens (Human), UniProt P42338)
Protocol: as §1

MST2 = MST2 (Homo sapiens (Human), UniProt Q13188)
Protocol: as §1

PITSLRE = test system: PITSLRE
Protocol: as §1

TLK2 = TLK2 (Homo sapiens (Human), UniProt Q86UE8)
Protocol: as §1

MARK4 = MARK4 (Homo sapiens (Human), UniProt Q96L34)
Protocol: as §1

CLK2 = CLK2 (Homo sapiens (Human), UniProt P49760)
Protocol: as §1

STLK6 = STLK6 (Homo sapiens (Human), UniProt Q9C0K7)
Protocol: as §1

NEK1 = NEK1 (Homo sapiens (Human), UniProt Q96PY6)
Protocol: as §1

PKR = PKR (Homo sapiens (Human), UniProt P19525)
Protocol: as §1

IRAK4 = IRAK4 (Homo sapiens (Human), UniProt Q9NWZ3)
Protocol: as §1

NDR1 = NDR1 (Homo sapiens (Human), UniProt Q15208)
Protocol: as §1

CDK11, CDK8 = test system: CDK11, CDK8
Protocol: as §1

p38d, p38g = test system: p38d, p38g
Protocol: as §1

MST3 = MST3 (Homo sapiens (Human), UniProt Q9Y6E0)
Protocol: as §1

CDC2 = CDC2 (Homo sapiens (Human), UniProt P06493)
Protocol: as §1

NDR2 = NDR2 (Homo sapiens (Human), UniProt Q9Y2H1)
Protocol: as §1

MST1, MST2 = test system: MST1, MST2
Protocol: as §1

PIP4K2C = PIP4K2C (Homo sapiens (Human), UniProt Q8TBX8)
Protocol: as §1

PI4KB = PI4KB (Homo sapiens (Human), UniProt Q9UBF8)
Protocol: as §1

PIP5K3 = PIP5K3 (Homo sapiens (Human), UniProt Q9Y2I7)
Protocol: as §1

ATR = ATR (Homo sapiens (Human), UniProt Q13535)
Protocol: as §1

ACK = ACK (Homo sapiens (Human), UniProt Q07912)
Protocol: as §1

[2] = range class, read-out: % inhibition

PIK3CB, sequence (P42338 whole entry): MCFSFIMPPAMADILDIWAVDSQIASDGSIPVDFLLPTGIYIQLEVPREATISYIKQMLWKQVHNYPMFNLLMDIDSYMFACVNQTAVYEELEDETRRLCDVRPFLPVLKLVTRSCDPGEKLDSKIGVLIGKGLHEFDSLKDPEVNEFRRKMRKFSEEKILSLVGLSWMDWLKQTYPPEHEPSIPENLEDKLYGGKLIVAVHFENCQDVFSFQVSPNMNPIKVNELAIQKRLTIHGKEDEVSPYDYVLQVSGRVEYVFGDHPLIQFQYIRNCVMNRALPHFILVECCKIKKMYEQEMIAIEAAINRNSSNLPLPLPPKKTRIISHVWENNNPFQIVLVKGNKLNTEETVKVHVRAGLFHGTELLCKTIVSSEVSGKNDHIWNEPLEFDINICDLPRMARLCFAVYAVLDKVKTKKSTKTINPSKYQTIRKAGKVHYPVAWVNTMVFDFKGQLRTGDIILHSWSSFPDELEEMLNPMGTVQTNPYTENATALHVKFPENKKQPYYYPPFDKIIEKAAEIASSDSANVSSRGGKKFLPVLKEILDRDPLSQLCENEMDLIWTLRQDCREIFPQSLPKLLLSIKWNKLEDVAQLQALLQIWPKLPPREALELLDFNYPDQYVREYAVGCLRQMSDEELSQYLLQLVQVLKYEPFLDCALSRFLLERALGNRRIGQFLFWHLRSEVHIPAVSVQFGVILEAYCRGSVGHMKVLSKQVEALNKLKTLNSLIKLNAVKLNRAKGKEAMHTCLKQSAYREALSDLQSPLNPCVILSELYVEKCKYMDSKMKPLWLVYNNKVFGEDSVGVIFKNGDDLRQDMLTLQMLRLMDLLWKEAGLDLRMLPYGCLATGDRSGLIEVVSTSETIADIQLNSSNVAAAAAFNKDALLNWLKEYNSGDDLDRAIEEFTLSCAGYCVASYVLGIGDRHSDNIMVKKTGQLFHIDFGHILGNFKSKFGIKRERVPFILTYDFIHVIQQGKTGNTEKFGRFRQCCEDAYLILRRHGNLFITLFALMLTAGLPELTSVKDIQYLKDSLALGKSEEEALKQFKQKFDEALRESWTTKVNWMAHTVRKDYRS
PIK3CB, sequence (P27986 whole entry partner): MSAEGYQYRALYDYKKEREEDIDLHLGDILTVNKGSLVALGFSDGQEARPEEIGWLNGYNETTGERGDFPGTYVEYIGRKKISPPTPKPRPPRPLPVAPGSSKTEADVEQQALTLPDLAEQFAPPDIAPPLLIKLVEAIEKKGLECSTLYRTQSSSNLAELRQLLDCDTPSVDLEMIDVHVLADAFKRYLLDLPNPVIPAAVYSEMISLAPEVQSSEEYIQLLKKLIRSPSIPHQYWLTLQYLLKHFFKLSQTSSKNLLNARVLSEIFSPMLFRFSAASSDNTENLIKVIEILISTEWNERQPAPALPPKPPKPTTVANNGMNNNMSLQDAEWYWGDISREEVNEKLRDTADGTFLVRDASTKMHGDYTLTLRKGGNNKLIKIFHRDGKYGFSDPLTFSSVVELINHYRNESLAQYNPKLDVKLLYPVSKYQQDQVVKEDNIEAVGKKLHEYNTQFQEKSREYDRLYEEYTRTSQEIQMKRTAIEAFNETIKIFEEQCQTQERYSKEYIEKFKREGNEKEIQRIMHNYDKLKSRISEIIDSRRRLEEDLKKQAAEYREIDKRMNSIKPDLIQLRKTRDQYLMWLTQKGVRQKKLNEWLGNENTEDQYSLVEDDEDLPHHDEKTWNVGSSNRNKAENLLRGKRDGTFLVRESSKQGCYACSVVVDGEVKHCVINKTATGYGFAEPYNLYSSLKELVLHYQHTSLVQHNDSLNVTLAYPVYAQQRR
Erk1, sequence (P27361 whole entry): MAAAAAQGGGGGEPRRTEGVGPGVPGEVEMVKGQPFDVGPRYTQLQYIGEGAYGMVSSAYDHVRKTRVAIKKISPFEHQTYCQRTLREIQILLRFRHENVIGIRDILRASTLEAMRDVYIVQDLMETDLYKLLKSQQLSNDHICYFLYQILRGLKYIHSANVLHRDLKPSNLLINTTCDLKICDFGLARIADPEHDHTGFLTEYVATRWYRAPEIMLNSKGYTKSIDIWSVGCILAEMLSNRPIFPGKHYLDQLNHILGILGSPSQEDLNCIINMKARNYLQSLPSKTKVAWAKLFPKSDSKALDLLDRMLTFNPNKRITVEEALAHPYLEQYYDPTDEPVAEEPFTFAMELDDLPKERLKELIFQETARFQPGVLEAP
MST2, sequence (Q13188 whole entry): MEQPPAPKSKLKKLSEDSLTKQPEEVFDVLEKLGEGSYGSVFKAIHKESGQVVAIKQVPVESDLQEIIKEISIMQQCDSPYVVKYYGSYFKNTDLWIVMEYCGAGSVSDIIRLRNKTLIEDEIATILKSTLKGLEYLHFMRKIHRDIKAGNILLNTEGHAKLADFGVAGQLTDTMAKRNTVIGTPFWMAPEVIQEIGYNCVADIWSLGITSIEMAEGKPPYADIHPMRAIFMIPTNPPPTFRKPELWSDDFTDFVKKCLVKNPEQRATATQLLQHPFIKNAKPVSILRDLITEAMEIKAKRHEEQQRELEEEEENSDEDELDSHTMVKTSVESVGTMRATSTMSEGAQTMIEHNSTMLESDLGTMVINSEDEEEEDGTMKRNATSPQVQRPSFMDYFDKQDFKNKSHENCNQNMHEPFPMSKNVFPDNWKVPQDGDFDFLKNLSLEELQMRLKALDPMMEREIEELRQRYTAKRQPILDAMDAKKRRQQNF
MAST3, sequence (O60307 whole entry): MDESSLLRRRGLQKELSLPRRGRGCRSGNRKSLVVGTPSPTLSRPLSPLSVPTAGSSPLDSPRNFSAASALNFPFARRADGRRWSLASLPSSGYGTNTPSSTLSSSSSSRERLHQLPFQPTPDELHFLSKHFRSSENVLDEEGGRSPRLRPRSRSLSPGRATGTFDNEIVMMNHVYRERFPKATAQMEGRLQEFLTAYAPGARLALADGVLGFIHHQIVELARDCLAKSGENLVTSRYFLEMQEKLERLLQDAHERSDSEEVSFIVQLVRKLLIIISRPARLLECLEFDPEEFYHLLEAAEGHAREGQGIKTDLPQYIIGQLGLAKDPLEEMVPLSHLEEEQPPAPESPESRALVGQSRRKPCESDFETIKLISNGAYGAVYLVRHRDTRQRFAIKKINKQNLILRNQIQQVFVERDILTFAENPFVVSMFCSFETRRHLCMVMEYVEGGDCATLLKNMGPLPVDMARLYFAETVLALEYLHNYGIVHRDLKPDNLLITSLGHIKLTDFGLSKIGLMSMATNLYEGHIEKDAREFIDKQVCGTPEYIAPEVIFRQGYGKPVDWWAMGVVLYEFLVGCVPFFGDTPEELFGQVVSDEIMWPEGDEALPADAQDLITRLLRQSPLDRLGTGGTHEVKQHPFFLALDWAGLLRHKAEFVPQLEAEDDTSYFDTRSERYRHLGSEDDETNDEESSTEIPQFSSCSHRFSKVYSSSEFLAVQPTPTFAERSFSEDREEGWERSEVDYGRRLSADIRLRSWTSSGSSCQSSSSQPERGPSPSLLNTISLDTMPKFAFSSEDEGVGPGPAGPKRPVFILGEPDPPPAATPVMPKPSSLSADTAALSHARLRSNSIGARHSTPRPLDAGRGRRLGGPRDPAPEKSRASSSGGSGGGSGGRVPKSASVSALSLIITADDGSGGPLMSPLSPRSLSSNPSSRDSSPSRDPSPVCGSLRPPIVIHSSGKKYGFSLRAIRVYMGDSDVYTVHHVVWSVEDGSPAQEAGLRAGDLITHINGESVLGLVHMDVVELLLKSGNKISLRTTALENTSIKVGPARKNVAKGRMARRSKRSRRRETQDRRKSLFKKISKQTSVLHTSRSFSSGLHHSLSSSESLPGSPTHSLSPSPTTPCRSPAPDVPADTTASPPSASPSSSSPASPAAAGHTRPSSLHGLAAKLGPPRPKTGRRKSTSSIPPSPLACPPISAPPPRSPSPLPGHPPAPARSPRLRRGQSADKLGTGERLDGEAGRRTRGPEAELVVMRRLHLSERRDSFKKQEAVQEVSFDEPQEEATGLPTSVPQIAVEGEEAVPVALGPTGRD
IRAK4, sequence (Q9NWZ3 whole entry): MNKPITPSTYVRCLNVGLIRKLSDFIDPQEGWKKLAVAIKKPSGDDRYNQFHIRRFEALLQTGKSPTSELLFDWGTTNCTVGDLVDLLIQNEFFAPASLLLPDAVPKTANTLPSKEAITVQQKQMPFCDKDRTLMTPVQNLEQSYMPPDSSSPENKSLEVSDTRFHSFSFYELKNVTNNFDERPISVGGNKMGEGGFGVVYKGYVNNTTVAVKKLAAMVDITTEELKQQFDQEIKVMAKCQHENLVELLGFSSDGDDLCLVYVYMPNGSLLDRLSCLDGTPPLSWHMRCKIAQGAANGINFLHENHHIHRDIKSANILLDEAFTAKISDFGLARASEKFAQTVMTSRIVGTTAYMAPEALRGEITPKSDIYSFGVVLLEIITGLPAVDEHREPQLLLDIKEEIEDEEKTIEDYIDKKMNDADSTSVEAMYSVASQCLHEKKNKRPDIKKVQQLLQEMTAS
p70S6K, sequence (P23443 whole entry): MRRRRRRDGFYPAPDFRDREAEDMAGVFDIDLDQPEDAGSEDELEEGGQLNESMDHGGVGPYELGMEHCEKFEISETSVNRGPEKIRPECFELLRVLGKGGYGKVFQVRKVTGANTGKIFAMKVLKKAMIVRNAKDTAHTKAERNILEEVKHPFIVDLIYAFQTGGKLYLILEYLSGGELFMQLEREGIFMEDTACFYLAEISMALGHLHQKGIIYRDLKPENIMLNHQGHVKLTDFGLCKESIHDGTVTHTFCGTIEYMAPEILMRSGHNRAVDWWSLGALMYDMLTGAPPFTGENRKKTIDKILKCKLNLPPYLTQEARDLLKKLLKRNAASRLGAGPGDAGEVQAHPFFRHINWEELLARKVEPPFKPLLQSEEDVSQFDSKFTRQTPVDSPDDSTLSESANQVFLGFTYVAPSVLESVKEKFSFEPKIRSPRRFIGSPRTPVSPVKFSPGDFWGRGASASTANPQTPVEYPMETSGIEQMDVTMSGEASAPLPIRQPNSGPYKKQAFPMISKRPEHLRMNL

For `COc1cc(NS(=O)(=O)C2CC2)ccc1-c1cnc(N)c(-c2ccc3c(c2)CCNC3=O)c1` [Compound I-50, N-(4-(6-amino-5-(1-oxo-1,2,3,4-tetrahydroisoquinolin-6-yl)pyridin-3-yl)-3-methoxyphenyl) cyclopropanesulfonamide], the “% inhibition” value (IKKe, TBK1; 10 μM, range class) was 0.0%, the “inhibition (10 μM)” value (IKKe, TBK1) was 33.9% and the inhibition at 10 µM (JAK3 domain2; [2]) was 0%. The inhibition at 10 µM (JAK3 domain2; read-out: inhibition (10 μM)) was -20.2%, the “% inhibition” value (MAPKAPK2, MAPKAPK3; 10 μM, range class) was 0.0% and the “inhibition (10 μM)” value (MAPKAPK2, MAPKAPK3) was −34.3%. It also gave an inhibition at 10 µM (p70S6K; [2]) of 0%, an inhibition at 10 µM (p70S6K; read-out: inhibition (10 μM)) of 2.4% and an inhibition at 10 µM (MAST3; [2]) of 0%. The inhibition at 10 µM (MAST3; read-out: inhibition (10 μM)) was -0.5%, the inhibition at 10 µM (SLK; [2]) was 50 to 75% and the inhibition at 10 µM (SLK; read-out: inhibition (10 μM)) was 70.6%. For the same compound, the inhibition at 10 µM (MLK3; [2]) was 35 to 40%, the inhibition at 10 µM (MLK3; read-out: inhibition (10 μM)) was 40.9% and the “% inhibition” value ([1]; 10 μM, range class) was 0.0%. The “inhibition (10 μM)” value [1] was 15.8%, the inhibition at 10 µM (Erk1; [2]) was 0% and the inhibition at 10 µM (Erk1; read-out: inhibition (10 μM)) was 29%. The inhibition at 10 µM (MARK2; [2]) was 0%, the inhibition at 10 µM (MARK2; read-out: inhibition (10 μM)) was -8.6% and the inhibition at 10 µM (RSK2 domain2; [2]) was 0%. The inhibition at 10 µM (RSK2 domain2; read-out: inhibition (10 μM)) was -1.4%, the inhibition at 10 µM (MASTL; [2]) was 0% and the inhibition at 10 µM (MASTL; read-out: inhibition (10 μM)) was -1.4%. For the same compound, the inhibition at 10 µM (PIK3CB; [2]) was 0%, the inhibition at 10 µM (PIK3CB; read-out: inhibition (10 μM)) was 27.7% and the inhibition at 10 µM (MST2; [2]) was over 90%. For the same compound, the inhibition at 10 µM (MST2; read-out: inhibition (10 μM)) was 97.5%, the “% inhibition” value (PITSLRE; 10 μM, range class) was 0.0% and the “inhibition (10 μM)” value (PITSLRE) was −27.6%. For the same compound, the inhibition at 10 µM (TLK2; [2]) was 0%, the inhibition at 10 µM (TLK2; read-out: inhibition (10 μM)) was -3% and the inhibition at 10 µM (MARK4; [2]) was 0%. For the same compound, the inhibition at 10 µM (MARK4; read-out: inhibition (10 μM)) was 6.8%, the inhibition at 10 µM (CLK2; [2]) was 0% and the inhibition at 10 µM (CLK2; read-out:) was 10.8%. For the same compound, the inhibition at 10 µM (STLK6; [2]) was 0%, the inhibition at 10 µM (STLK6; read-out: inhibition (10 μM)) was -15% and the inhibition at 10 µM (NEK1; [2]) was 0%. The inhibition at 10 µM (NEK1; read-out: inhibition (10 μM)) was 16.8%, the inhibition at 10 µM (PKR; [2]) was 0% and the inhibition at 10 µM (PKR; read-out: inhibition (10 μM)) was 1.8%. The inhibition at 10 µM (IRAK4; [2]) was 0%, the inhibition at 10 µM (IRAK4; read-out: inhibition (10 μM)) was 19.6% and the inhibition at 10 µM (NDR1; [2]) was 0%. For the same compound, the inhibition at 10 µM (NDR1; read-out: inhibition (10 μM)) was 20.2%, the “% inhibition” value (CDK11, CDK8; 10 μM, range class) was 35-40% and the “inhibition (10 μM)” value (CDK11, CDK8) was 38.1%. For the same compound, the “% inhibition” value (p38d, p38g; 10 μM, range class) was 0.0%, the “inhibition (10 μM)” value (p38d, p38g) was 7.4% and the inhibition at 10 µM (MST3; [2]) was 0%. It also gave an inhibition at 10 µM (MST3; read-out: inhibition (10 μM)) of 20%, an inhibition at 10 µM (CDC2; [2]) of 0% and an inhibition at 10 µM (CDC2; read-out: inhibition (10 μM)) of 13.7%. The inhibition at 10 µM (NDR2; [2]) was 0%, the inhibition at 10 µM (NDR2; read-out: inhibition (10 μM)) was 4.5% and the “% inhibition” value (MST1, MST2; 10 μM, range class) was over 90%. For the same compound, the “inhibition (10 μM)” value (MST1, MST2) was 98.7%, the inhibition at 10 µM (PIP4K2C; [2]) was over 90% and the inhibition at 10 µM (PIP4K2C; read-out: inhibition (10 μM)) was 90.6%. It also gave an inhibition at 10 µM (PI4KB; [2]) of 0%, an inhibition at 10 µM (PI4KB; read-out: inhibition (10 μM)) of 0% and an inhibition at 10 µM (PIP5K3; [2]) of 75 to 90%. It also gave an inhibition at 10 µM (PIP5K3; read-out: inhibition (10 μM)) of 79.7%, an inhibition at 10 µM (ATR; [2]) of 0% and an inhibition at 10 µM (ATR; read-out: inhibition (10 μM)) of 17.1%. For the same compound, the inhibition at 10 µM (ACK; [2]) was 0% and the inhibition at 10 µM (ACK; read-out: inhibition (10 μM)) was 11.3%.
